From patent US20040063710A1, “Ophthalmological preparations” (priority 2000, published 2004)

How the values were obtained:
[1] = test system: retinal ganglion cells; experiment: Inhibitory effect against retinal ganglion cell death caused by glutamate; type: cell-based, Wister rat; settings: 10^-7 M, 10^-6 M, 10^-5 M MCI-154; 250 μM glutamate, 48 hours culture; versus control group
Description: In accordance with the method of Otori et al. (Investigative Ophthalmology & Visual Science, Vol. 39, No. 6, 1998), retinal ganglion cells were isolated from a 6 day-old Wister rat, and approximately 300 cells were plated on each cover glass having a diameter of 12 mm with poly-L-lysine and laminin coatings, that was inserted in each well of a 24-well culture plate, and then were cultured for 24 hours. The cells were divided into an untreated group, a control group, and medicament-treated group, each consisting of 2 wells. To the untreated and control groups, a basic culture medium was added, and to the medicament-treated groups, MCI-154 was added at various concentrations. After 4 hours of culture, 250 μM of glutamate was added to all of the groups except for the untreated group, followed by further culture for 48 hours. After the culture for 48 hours, cells were stained with 1 μM calcein acetoxymethyl ester, and the number of cells with neurites growing more than twice as long as the cell body diameter was counted as viable cells under a fluorescence microscope. Independent three experiments were performed in duplicate.
Medicament-treated group: 10^−7 M, 10^−6 M, and 10^−5 M MCI-154
Basic culture medium: Neurobasal (Gibco, Grand Island, N.Y.) including 1 mM glutamine, 10 μg/ml gentamycin, and 40 ng/ml […], CNTF, and b-FGF. […]

[2] = test system: left atrium of guinea pig; experiment: Isolated left atrium of guinea pig; settings: Dose 3 × 10^-5 g/ml
Description: A left atrium was isolated from a male guinea pig with 200-300 g of body weight soon after striking on the back of its head. The mitral orifice was fixed to the bottom of an organ bath filled with 30 ml of Krebs-Henseleit solution maintained at 35° C. A gas mixture comprising 95% O2 and 5% CO2 was passed through the Krebs-Henseleit solution in the organ bath. Isometric tension was measured by connecting a left auricle of heart and a transducer by a yarn. A resting tension of 0.5 g was given to the atrium, which was then electrically driven with square pulses with duration of 1 msec and voltage of 1.5 times as much as threshold in the rate 2 Hz via dipolar platinum electrodes. After stabilizing the atrium for 30 minutes from its preparation, the compound dissolved in a solvent was added to the organ bath to measure its effect.

[3] = test system: retinal degeneration caused by transient retinal ischemia; experiment: Inhibitory effect against retinal degeneration induced by transient retinal ischemia; type: in vivo, Wister male rats; settings: 0.1 mg/kg into caudal vein just before and immediately after ocular hypertension treatment (130 mmHg, 50 minutes); 7 days after; versus control group
Description: Wister male rats (body weight of about 200 g) was used. Each animal was subjected to sufficient warming treatment by using a thermal plate under anesthesia, and the head was fixed by using a stereotaxic apparatus. In order to induce transient retinal ischemia, IOP was maintained at 130 mmHg for 50 minutes by injecting intraocular irrigating solution into the anterior chamber via the cornea using an infusion tube and 30 G injection needle which were connected to a bottle held at 174 cm above the eyes (ocular hypertension treatment) according to the method of Akaike (Folia Pharmacologica Japonica, 111, pp.97-104(1998)). The ocular hypertension treatment was performed only on the right eye, and the left eye was left untreated. Just before and immediately after the ocular hypertension treatment, a physiological saline or a dose of 0.1 mg/kg of MCI0154 was injected to the caudal vein. Seven days after the ocular hypertension treatment, the animal was sacrificed under anesthesia, and eyeballs were isolated and a light microscopic specimens of horizontal sections of retina were prepared. Under a microscope, thickness of the retina (from inner plexiform layer to outer plexiform layer) was measured using a micrometer. […] 7 days after the ocular hypertension treatment. Data represent means±SEM (standard errors), and the number of rats for each group was 10. […]

SMILES: O=C1CCC(c2ccc(Nc3ccncc3)cc2)=NN1 [MCI-154, 6-[4-(4-pyridylamino)phenyl]-4,5-dihydro-3 (2H)pyridazinone]
- inhibition of retinal ganglion cell death induced by glutamate (viable cells relative to untreated group) [1]: significantly inhibits
- Contraction of left atrium of guinea pig, Increase (%) [2]: 188%
- inhibition of retinal degeneration caused by transient retinal ischemia (retinal thickness ratio) [3]: significantly inhibits
